Experimental data published in patent US20230079100A1, “PROCESS FOR PREPARING SOLID FORMULATIONS COMPRISING A HYDROPHOBIC COMPOUND DISPERSIBLE IN A COLD LIQUID AND RELATIVE SOLID FORMULATIONS” (NUTRILINEA S.R.L., priority 2020, published 2023).

Experiments:
[1] = Visual evaluation of the degree of wettability of solid formulations poured into water; type: physicochemical; conditions: for Visual degree of wettability of the solid formulation: process of the invention, fluid bed, 1.5 g in 100 ml water at room temperature
[2] = Static contact angle of ultrapure water on sample pelleted or deposited as film (Krüss Easy Drop); type: physicochemical; conditions: 8 μL milliQ water drop, mean with standard deviation, 0 = complete wettability; for Contact angle on pellet: pelleted sample; for Contact angle on film (°): sample deposited as film
Protocol: 1.4 Contact angle measurements on hydrophobic substrates treated according to the process of the present invention (see section 1 of the experimental part).
The experimental measurements reported hereinafter relate to the study of the wettability characteristics of powdered samples before and after the process according to the present invention. The determination of the static contact angle of ultrapure water (also referred to as grade 1) was carried out on the surface of the sample pelleted or deposited in the form of film, according to methods known in the state of the art and as reported in [1] Nowak et al. Powder Technology 233 (2013) 52-64, e in [2] Bachmann and McHale, European Journal of Soil Science, 60 (2009) 420-430. The determinations were carried out using a Krüss Easy Drop instrument using drops of 8 μL of milliQ water. The behaviour of the drop in the first seconds from the deposition was analysed by recording 30-second video at 25 fps (frames per second): the contact angle considered is the equilibrium value or the final one at the end of the recording. Each sample was analysed both deposited in the form of film and pelleted and at least 3 independent contact angle determinations were carried out for each sample.
5 different types of powders were analysed; each of them was analysed both in the unmodified form thereof (as such) and after the process according to the present invention. In the case of the PEA (Palmitoylethanolamide) powder, a second batch of sample was analysed, for which only measurements on film were carried out. The results of the determinations are reported in Table IV: the mean contact angle value with standard deviation relative to the measurements on pellet and on film are reported. In case of complete wettability of the sample, an angle of 0° is reported. Overall, a greater correspondence of the wettability data measured on film with the dispersibility data observed experimentally (visual observation) is observed. This observation is in good agreement with the literature; the less representativeness of the measurements on pellets can be linked in some cases to absorption phenomena linked to the porosity of the pellet or to alterations of the surface free energy of the powder during pelletisation due to the applied pressure.

[3] = comparison process (A) dry mixing in a cube (1 kg), charging agent maltodextrin, 50%/50%
[4] = comparison process (A) dry mixing in a cube (1 kg), charging agent maltodextrin, 70%/30%
[5] = comparison process (A) dry mixing in a cube (1 kg), charging agent mannitol, 50%/50%
[6] = comparison process (A) dry mixing in a cube (1 kg), charging agent mannitol, 70%/30%
[7] = comparison process (A) dry mixing in a cube (1 kg), charging agent sugar, active/charging agent 50%/50%
[8] = comparison process (A) dry mixing in a cube (1 kg), charging agent sugar, active/charging agent 70%/30%
[9] = comparison process (B) wet granulations (1.5 kg), charging agent maltodextrin, 50%/50%
[10] = comparison process (B) wet granulations (1.5 kg), charging agent maltodextrin, 70%/30%
[11] = comparison process (B) wet granulations (1.5 kg), charging agent mannitol, 50%/50%
[12] = comparison process (B) wet granulations (1.5 kg), charging agent mannitol, 70%/30%
[13] = comparison process (B) wet granulations (1.5 kg), charging agent sugar, 50%/50%
[14] = comparison process (B) wet granulations (1.5 kg), charging agent sugar, 70%/30%
[15] = comparison process (C) wet granulation in a fluid bed granulator (1.5 kg), atomised water about 300-400 g, charging agent maltodextrin, 50%/50%
[16] = comparison process (C) wet granulation in a fluid bed granulator (1.5 kg), atomised water about 300-400 g, charging agent maltodextrin, 70%/30%
[17] = comparison process (C) wet granulation in a fluid bed granulator (1.5 kg), atomised water about 300-400 g, charging agent sugar, 50%/50%
[18] = comparison process (C) wet granulation in a fluid bed granulator (1.5 kg), atomised water about 300-400 g, charging agent sugar, 70%/30%
[19] = comparison process (C) wet granulation in a fluid bed granulator, atomised water about 300-400 g, charging agent mannitol, 50%/50%
[20] = comparison process (C) wet granulation in a fluid bed granulator, atomised water about 300-400 g, charging agent mannitol, 70%/30%
[21] = comparison process (D.a) granulation in a powder kneader (1 kg), active 90% w/w + liquid polysorbate 80 pure 10% w/w
[22] = comparison process (D.b) mixing in a cube (1 kg), active 90% w/w + powder sucrester 10% w/w
[23] = comparison process (E) wet granulation in a fluid bed granulator, active 90% + aqueous solution of polysorbate 80 at 10% w/w, 10%
[24] = solid substrate 90% w/w (900 g) + liquid polysorbate 80 pure at 100% 10% w/w (100 g)
[25] = solid substrate 93% w/w (930 g) + liquid polysorbate 80 pure at 100% 7% w/w (70 g)
[26] = solid substrate 95% w/w (950 g) + liquid polysorbate 80 pure at 100% 5% w/w (50 g)

| Compound | Visual degree of wettability of the active component [1, 3] | Visual degree of wettability of the active component [1, 4] | Visual degree of wettability of the active component [1, 5] | Visual degree of wettability of the active component [1, 6] | Visual degree of wettability of the active component [1, 7] | Visual degree of wettability of the active component [1, 8] | Visual degree of wettability of the active component [1, 9] | Visual degree of wettability of the active component [1, 10] | Visual degree of wettability of the active component [1, 11] | Visual degree of wettability of the active component [1, 12] | Visual degree of wettability of the active component [1, 13] | Visual degree of wettability of the active component [1, 14] | Visual degree of wettability of the active component [1, 15] | Visual degree of wettability of the active component [1, 16] | Visual degree of wettability of the active component [1, 17] | Visual degree of wettability of the active component [1, 18] | Visual degree of wettability of the active component [1, 19] | Visual degree of wettability of the active component [1, 20] | Visual degree of wettability of the active component [1, 21] | Visual degree of wettability of the active component [1, 22] | further results |
| --- | --- | --- | --- | --- | --- | --- | --- | --- | --- | --- | --- | --- | --- | --- | --- | --- | --- | --- | --- | --- | --- |
| CCCCCCCCCCCCCCCC(=O)NCCO [PEA, Palmitoylethanolamide] | Nil | Nil | Nil | Nil | Nil | Nil | Nil/low | Nil/low | Nil/low | Nil/low | Nil/low | Nil/low | Low/Sufficient | Low | Low/Sufficient | Low | Low/Sufficient | Low | Low/Sufficient | Nil | Visual degree of wettability of the active component [1, 23]: Low/Sufficient; Visual degree of wettability of the solid formulation [1, 24]: Excellent; Visual degree of wettability of the solid formulation [1, 25]: Fair; Visual degree of wettability of the solid formulation [1, 26]: Fair; Contact angle on pellet [2]: 72 ± 4 °; Contact angle on film (°) ([2]; listed as PEA as such): 117 ± 7 °; Contact angle on film (°) ([2]; listed as PEA as such second batch): 114 ± 5 ° |
| alpha-lactalbumin | Nil | Nil | Nil | Nil | Nil | Nil | Nil/low | Nil/low | Nil/low | Nil/low | Nil/low | Nil/low | Low/Sufficient | Low | Low/Sufficient | Low | Low/Sufficient | Low | Low/Sufficient | Nil | Visual degree of wettability of the active component [1, 23]: Low/Sufficient; Visual degree of wettability of the solid formulation [1, 24]: Excellent; Visual degree of wettability of the solid formulation [1, 25]: Fair; Visual degree of wettability of the solid formulation [1, 26]: Fair; Contact angle on pellet [2]: 61 ± 6 °; Contact angle on film (°) [2]: 69 ± 3 ° |
